# Results published in patent publication US7071231B2, “Naphthalene ureas as glucose uptake enhancers” (Telik, Inc., priority 1999, dated 2006).
# Tested on: 3T3 L1 fibroblasts
# Test: Glucose transport activity assay (14C-2-deoxy-D-glucose uptake)
# Format: cell-based
# Settings: EC (effective concentration) for increase in glucose transport; 14C-2-deoxy-D-glucose, 3T3 L1 cells; read-out: Concentration (μM) to reach >150% activity of vehicle control
# Method: Glucose Transport Activity Assay.
# Stimulation of the insulin receptor leads to the transport of glucose from the blood into cells, thus modulating blood glucose levels. 3T3 L1 fibroblasts (ATCC) were grown in Dulbecco's modified Eagle's medium (DMEM) with 10% fetal bovine serum (FBS). The cells were plated at a density of 3×10^4 cells/well in 24-well plates. Two days after confluence was reached, the cells were treated for 3 days with 0.5 mM isobutylmethylxanthine (IBMX), 1 μM dexamethasone, and 1.7 μM insulin. The cells were then transferred to DMEM with 10% FBS and supplemented with 1.7μM insulin for 2 more days. The cells were maintained in DMEM with 10% FBS for an additional 4 days. Finally the cells were serum-starved overnight in 0.1% bovine serum albumin (BSA) in DMEM.
# The following day, the medium was replaced with 150 mM NaCl, 1.7 mM KCl, 0.9 mM CaCl2, K2HPO4 (pH 7.4) to which were added either the experimental compounds or their vehicle (DMSO). Insulin or its vehicle (0.01% BSA) was diluted in the assay buffer (containing test compound or vehicle, respectively) to final concentration of […]. After incubation for 30 min at 37° C., 5 μCi/ml ^14C-2-deoxy-D-glucose was added, and the incubation was continued for additional 30 min at 37° C. The cells were then washed 3 times with ice-cold PBS/20 mM glucose and lysed in 250 μl of lysis buffer (50 mM HEPES pH 7.6, 1% Triton X-100) for 30 min at room temperature. Radioactivity in the lysate was quantified by scintillation counting.
# Once ^14C-2-deoxy-D-glucose is transported into the cell, it is not released. Glucose transport is, therefore, proportional to the amount of radioactivity in the lysate. The concentration of compound necessary to produce an increase in glucose transport to greater than 150% of the vehicle control (generally representing the sum of the standard deviation of the vehicle control plus the largest standard deviation of a test sample) was recorded as the EC (effective concentration). Shown in FIG. 3 is glucose uptake by cells at various concentrations when treated with Compound 13 and Compound 15.
row,Compound,EC (150% of vehicle control) [µM]
1,5-({[7-({[(7-{[(3-carboxy-4-chlorophenyl)amino]sulfonyl}(2-naphthyl))amino]iminomethyl}amino)(2-naphthyl)]sulfonyl}amino)-2-chlorobenzoic acid [Compound 160],3.2
2,5-[({7-[3-(7-{[(3-carboxy-4-hydroxyphenyl)amino]sulfonyl}(2-naphthyl))-2-oxoimidazolidinyl](2-naphthyl)}sulfonyl)amino]-2-hydroxybenzoic acid [Compound 122],32

# Same assay, conditions: Mus musculus, 3T3-L1, read-out: Concentration (μM) to reach >150% activity of vehicle control
row,Compound,EC (150% of vehicle control) [µM]
1,"O=C(Nc1ccc2ccc(S(=O)(=O)Nc3ccc([N+](=O)[O-])c(C(=O)O)c3)cc2c1)Nc1ccc2ccc(S(=O)(=O)Nc3ccc([N+](=O)[O-])c(C(=O)O)c3)cc2c1 [Compound 38, 5-{[(7-{[N-(7-{[(3-carboxy-4-nitrophenyl)amino]sulfonyl}(2-naphthyl))carbamoyl]amino}(2-naphthyl))sulfonyl)amino}-2-nitrobenzoic acid]",3.2

# Same assay, conditions: Mus musculus; EC (effective concentration) for increase in glucose transport; 14C-2-deoxy-D-glucose, 3T3 L1 cells; read-out: Concentration (μM) to reach >150% activity of vehicle control
row,Compound,EC (150% of vehicle control) [µM]
1,"O=C(Nc1ccc2ccc(S(=O)(=O)O)cc2c1)Nc1ccc2ccc(S(=O)(=O)Nc3ccc(S(=O)(=O)O)cc3)cc2c1 [Compound 20, 7-{[(7-{[(4-sulfophenyl)amino]sulfonyl}-2-naphthyl)amino]carbonylamino}naphthalene-2-sulfonic acid]",3.2
2,"O=C(Nc1ccc2ccc(S(=O)(=O)Nc3ccc(S(=O)(=O)O)cc3)cc2c1)Nc1ccc2ccc(S(=O)(=O)Nc3ccc(S(=O)(=O)O)cc3)cc2c1 [Compound 22, 4{[(7-{[N-(7-{[(4-sulfophenyl)amino]sulfonyl}-2-naphthyl)carbamoyl]amino}-2-naphthyl)sulfonyl]amino}benzenesulfonic acid]",3.2
3,"O=C(Nc1ccc2ccc(S(=O)(=O)Nc3ccc(C(=O)O)cc3)cc2c1)Nc1ccc2ccc(S(=O)(=O)Nc3ccc(C(=O)O)cc3)cc2c1 [Compound 25, 4-{[(7-{[N-(7-{[(4-carboxyphenyl)amino]sulfonyl}-2-naphthyl)carbamoyl]amino}-2-naphthyl)sulfonyl]amino}benzoic acid]",3.2
4,"O=C(Nc1ccc2ccc(S(=O)(=O)O)cc2c1)Nc1ccc2ccc(S(=O)(=O)Nc3cccc(C(=O)O)c3O)cc2c1 [Compound 30, 2-hydroxy-3-{[(7-{[N-(7-sulfo(2-naphthyl))carbamoyl]amino}(2-naphthyl))sulfonyl]amino}benzoic acid]",3.2
5,"O=C(Nc1ccc2ccc(S(=O)(=O)Nc3cccc(C(=O)O)c3O)cc2c1)Nc1ccc2ccc(S(=O)(=O)Nc3cccc(C(=O)O)c3O)cc2c1 [Compound 31, 3-{[(7-{[N-(7-{[(3-carboxy-2-hydroxyphenyl)amino]sulfonyl}(2-naphthyl))carbamoyl]amino}(2-naphthyl))sulfonyl]amino}-2-hydroxybenzoic acid]",3.2
6,"O=C(Nc1ccc2ccc(S(=O)(=O)O)cc2c1)Nc1ccc2ccc(S(=O)(=O)Nc3ccc(O)c(C(=O)O)c3)cc2c1 [Compound 32, 2-hydroxy-5-{[(7-{[N-(7-sulfo(2-naphthyl))carbamoyl]amino}(2-naphthyl))sulfonyl]amino}benzoic acid]",32
7,"O=C(Nc1ccc2ccc(S(=O)(=O)Nc3ccc(O)c(C(=O)O)c3)cc2c1)Nc1ccc2ccc(S(=O)(=O)Nc3ccc(O)c(C(=O)O)c3)cc2c1 [Compound 33, 5-{[(7-{[N-(7-{[(3-carboxy-4-hydroxyphenyl)amino]sulfonyl}(2-naphthyl))carbamoyl]amino}(2-naphthyl))sulfonyl]amino}-2-hydroxybenzoic acid]",3.2
8,"O=C(Nc1ccc2ccc(S(=O)(=O)O)cc2c1)Nc1ccc2ccc(S(=O)(=O)Nc3ccc(C(=O)O)c(O)c3)cc2c1 [Compound 34, 2-hydroxy-4-{[(7-{[N-(7-sulfo(2-naphthyl))carbamoyl]amino}(2-naphthyl))sulfonyl]amino}benzoic acid]",> 32
9,"O=C(Nc1ccc2ccc(S(=O)(=O)Nc3ccc(C(=O)O)c(O)c3)cc2c1)Nc1ccc2ccc(S(=O)(=O)Nc3ccc(C(=O)O)c(O)c3)cc2c1 [Compound 35, 4-{[(7-{[N-(7-{[(4-carboxy-3-hydroxyphenyl)amino]sulfonyl}(2-naphthyl))carbamoyl]amino}(2-naphthyl))sulfonyl]amino}-2-hydroxybenzoic acid]",32
10,"O=C(Nc1ccc2ccc(S(=O)(=O)O)cc2c1)Nc1ccc2ccc(S(=O)(=O)Nc3ccc([N+](=O)[O-])c(C(=O)O)c3)cc2c1 [Compound 37, 2-nitro-5-{[(7-{[N-(7-sulfo(2-naphthyl))carbamoyl]amino}(2-naphthyl))sulfonyl]amino}benzoic acid]",3.2
11,"O=C(Nc1ccc2c(O)cc(S(=O)(=O)Nc3ccc(O)c(C(=O)O)c3)cc2c1)Nc1ccc2c(O)cc(S(=O)(=O)Nc3ccc(O)c(C(=O)O)c3)cc2c1 [Compound 43, 5-{[(7-{[N-(7-{[(3-carboxy-4-hydroxyphenyl)amino]sulfonyl}-5-hydroxy(2-naphthyl))carbamoyl]amino}-4-hydroxy(2-naphthyl))sulfonyl]amino}-2-hydroxybenzoic acid]",10
12,"O=C(Nc1ccc2ccc(S(=O)(=O)Nc3ccccc3C(=O)O)cc2c1)Nc1ccc2ccc(S(=O)(=O)Nc3ccccc3C(=O)O)cc2c1 [Compound 45, 2-{[(7-{[N-(7-{[(2-carboxyphenyl)amino]sulfonyl}-2-naphthyl)carbamoyl]amino}-2-naphthyl)sulfonyl]amino}benzoic acid]",3.2
13,"O=C(Nc1ccc2c(O)cc(S(=O)(=O)Nc3ccccc3C(=O)O)cc2c1)Nc1ccc2c(O)cc(S(=O)(=O)Nc3ccccc3C(=O)O)cc2c1 [Compound 47, 2-{[(7-{[N-(7-{[(2-carboxyphenyl)amino]sulfonyl}-5-hydroxy(2-naphthyl))carbamoyl]amino}-4-hydroxy-2-naphthyl)sulfonyl]amino}benzoic acid]",3.2
14,"O=C(Nc1ccc2c(O)cc(S(=O)(=O)Nc3ccc(Cl)c(C(=O)O)c3)cc2c1)Nc1ccc2c(O)cc(S(=O)(=O)Nc3ccc(Cl)c(C(=O)O)c3)cc2c1 [Compound 49, 5-{[(7-{[N-(7-{[(3-carboxy-4-chlorophenyl)amino]sulfonyl}-5-hydroxy(2-naphthyl))carbamoyl]amino}-4-hydroxy(2-naphthyl))sulfonyl]amino}-2-chlorobenzoic acid]",3.2
15,"COC(=O)c1cc(NS(=O)(=O)c2cc(O)c3ccc(NC(=O)Nc4ccc5c(O)cc(S(=O)(=O)Nc6cc(C(=O)OC)cc(C(=O)OC)c6)cc5c4)cc3c2)cc(C(=O)OC)c1 [Compound 50, methyl 3-({[7-({[7-({[3,5-bis(methoxycarbonyl)phenyl]amino}sulfonyl)-5-hydroxy(2-naphthyl)]amino}carbonylamino)-4-hydroxy(2-naphthyl)]sulfonyl}amino)-5-(methoxycarbonyl)benzoate]",3.2
16,"O=C(Nc1ccc2c(O)cc(S(=O)(=O)Nc3cc(C(=O)O)cc(C(=O)O)c3)cc2c1)Nc1ccc2c(O)cc(S(=O)(=O)Nc3cc(C(=O)O)cc(C(=O)O)c3)cc2c1 [Compound 51, 5-{[(7-{[N-(7-{[(3,5-dicarboxyphenyl)amino]sulfonyl}-5-hydroxy(2-naphthyl))carbamoyl]amino}-4-hydroxy-2-naphthyl)sulfonyl]amino}benzene-1,3-dicarboxylic acid]",> 32
